These results are taken from patent US20180318383A1, “PEPTIDE HAVING NEURONAL LOSS PREVENTION AND REGENERATION EFFECTS, AND COMPOSITION CONTAINING SAME” (GEMVAX & KAEL CO., LTD., priority 2015, published 2018).

Format in all cases: cell-based, rat
Data set [1] concerns NSCs. As to the kind of experiment: Cell viability of NSCs (CCK-8, MTT, LDH). The following applies: 48 hours. How it is done: NSCs were isolated from the brain of a rat embryo, cultured and developed. The NSC culture was performed in the same manner as to be described below. Briefly describing, a rat embryo was obtained on day 13 of the embryonic period, and the brain was quickly removed and placed in a petri dish containing cold phosphate-buffered physiological saline (Hank's balanced salt solution; HBSS).
Single cells were isolated from the cerebral cortex, the lateral ganglion eminence, and the embryonic midbrain. These cells were put into a dish pre-treated with L-ornithine and fibronectin, containing calcium and magnesium-free phosphate-buffered physiological saline (PBS) at a density of 20,000 cells/cm^2. In addition, the cells were cultured in an N2 medium (DMEM F/12, […] insulin, 100 mg/L transferrin, 30 nM selenite, […], 20 nM progesterone, 0.2 mM ascorbic acid, […], 8.6 mM D(+) glucose, and […]). The culture was maintained in humidified and 5% CO2 conditions for 4 to 6 days at 37° C.
NSCs were divided into 6 samples, and each sample was treated with […] Aβ25-30 oligomers for 48 hours to identify a suitable concentration. […] Briefly, Aβ25-30 was dissolved in hexafluoroisopropanol to reach a concentration of 1 mM. In addition, the prepared solution was dispensed using a sterilized ultramicrocentrifuge tube. […]
To identify the PEP1 effect in NSCs, PEP1 was treated at various concentrations of 0, 1, 10, 50, 100, and 200 μM for 48 hours. […] The plate was gently washed with PBS several times, and cell viability was measured using a cell counting kit-8 (CCK-8), MTT and lactate dehydrogenase (LDH).
CCK-8 was used as a method for counting living cells by bonding 2-[2-methoxy-4-nitrophenyl]-3-[4-nitrophenyl]-5-[2,4-disulfophenyl]-2H-tetrazolium, monosodium salt (WST-8) with 1-methoxyphenazinium methylsulfate (PMS). […] Cell viability was evaluated by measuring absorbance at 450 nm. […] Cell viability was evaluated by measuring absorbance at 490 nm and reference absorbance at 690 nm. […]

Data set [2] concerns NSCs. The experiment in a line: Cell migration assay (QCM-24-well kit). To be noted: 20 μM Aβ25-35 + PEP1 1, 10, 50 μM. How it is done: A cell migration assay was carried out using a QCM-24-well cell migration kit. Briefly, 20 μM Aβ25-30 and each concentration of PEP1 (1, 10 or 50 μM) were added to a lower chamber, and 3×10^5 NSCs were cultured in an upper chamber at 37° C. for 24 hours. NSCs migrated toward the membrane, and after staining to observe the number of migrating cells, absorbance was measured at 560 nm.

Data set [3] deals with NSCs. The experiment in a line: ROS production in NSCs (DCFH-DA staining). The following applies: 20 μM Aβ25-35 + PEP1, 48 hours, DCF fluorescence. How it is done: NSCs were treated with 20 μM Aβ25-30 for 48 hours and stained with DCFH-DA for 15 minutes to measure ROS. NSCs were treated with a varying concentration of PEP1 and 20 μM Aβ25-30 for 48 hours. After culturing, the cells were stained with 10 μM DCFH-DA at 37° C. for 15 minutes and washed with PBS three times. DCFH-DA freely passed through the cell membrane, and then was degraded into DCF by an esterase present in the cells. Therefore, a DCF fluorescent intensity refers to an intracellular hydrogen peroxide (ROS) level. DCF accumulation was evaluated using a reader according to an absorbance at 490 nm and a reference absorbance at 690 nm. Flow cytometry was observed and analyzed using an Accuri C6 flow cytometer.

“EARPALLTSRLRFIPK (homo sapiens) [PEP1, hTERT-derived peptide consisting of 16 amino acids, telomerase location [611-626]]”: the “survival ability of NSCs” value in data set [1] (20 μM Aβ25-35 + PEP1 up to 100 μM, vs 20 μM Aβ25-35 only, MTT, CCK-8, LDH) is listed as “gradually increased”. Moreover, the cell survival ability result in data set [1] (NSCs, PEP1 alone 0-200 μM, CCK-8, up to 100 μM) is reported as “not influenced”. Further, in data set [2], the “migration ability of NSCs” value is listed as “effectively restored migration”. In addition, the “amount of ROS induced by Aβ25-35” value in data set [3] was “significantly reduces”.
